Data as given in patent US20040247696A1, “Methods of using electron active compounds for managing conditions afflicting mammals” (priority 2001, published 2004).

Tests used:
salmonella = assay: AOAC culture test, salmonella-contaminated aqueous solutions; format: cell-based; conditions: ten minutes exposure
Procedure: Unless otherwise indicated, antimicrobial evaluations of the various fluorinator compounds tested were performed versus control samples in cultures in accordance with the protocol as set forth in AOAC (15th) 1990:965:13 at colony densities indicated in the examples.
Aqueous solutions were prepared having a salmonella contamination at a cell density of about 500,000 cfu/mL. Two solutions of XeF2 were prepared: one as a 1% solution in 85% phosphoric acid stabilizer, and a second solution containing no stabilizer. The materials were cultured versus controls at concentrations of about 2 ppm and about 4 ppm XeF2 and at a pH of about 9.

coliform = assay: AOAC culture test, coliform-contaminated water; format: cell-based; conditions: about 2 PPM XeF2 + about 20 PPM KPS, pH about 7, 37.4 cfu/mL
Procedure: These and other aspects of the present invention may be more fully understood with reference to the following examples, which are merely illustrative of the preferred embodiments of the present invention, and are not to be construed as limiting the invention, the scope of which is defined by the appended claims. Unless otherwise indicated, antimicrobial evaluations of the various fluorinator compounds tested were performed versus control samples in cultures in accordance with the protocol as set forth in AOAC (15th) 1990:965:13 at colony densities indicated in the examples.
Contaminated water was prepared and measured to have AOAC coliform counts averaging 37.4 colony forming units per milliliter (cfu/mL). The water was treated by first adding crystal potassium monopersulfate (KPS) stabilizer, commercially available from E.I. DuPont de Nemours & Co. Corp. as OXONE®, and xenon difluoride (XeF2). The concentration in solution of the KPS and XeF2 was about 20 PPM and about 2 PPM respectively, and the pH of the treated solution was about 7.

[1] = animals not prone to silver allergies
From the text: Preferred routes of administration include topically and application to mucosa. Application can be made, for example, digitally or using a suitable applicator.

Q: Which salmonella inhibition (salmonella; about 2 ppm XeF2, pH about 9, about 500,000 cfu/mL) does the source give for `F[Xe]F` [XeF2, xenon difluoride] here?
A: The salmonella inhibition was “about 13.2%”.

Q: What about the salmonella inhibition (salmonella; about 4 ppm XeF2, pH about 9, about 500,000 cfu/mL) of the same molecule?
A: The salmonella inhibition was “about 96.4%”.

Q: And the coliform inhibition (coliform; 5 minutes exposure)?
A: The coliform inhibition was “about 73%”.

Q: And the coliform inhibition (coliform; 10 minutes exposure)?
A: Its coliform inhibition is “about 77%”.

Q: Which “Ill effects or irritation on application to the skin” value [1] does the source give for `[Ag+].[Ag+].[Ag+].[Ag+].[O-2].[O-2].[O-2].[O-2]` [Ag4O4, tetrasilver tetroxide] here?
A: Its value is “without any ill effects or evidence of irritation”.
